From US12595269B2, “Morpholine-like monoamine releasers” (Solvonis Therapeutics Ireland Holdings Limited, priority 2022, dated 2026)
Where two headings read alike, the source gives them in different places.

Columns and labels:
[1] = Lipophilicity by Chromatographic Hydrophobicity Index (CHI LogD); assay type: physicochemical
Procedure: Methods and Procedure: The methods employed herein comply with previously described procedures to assure data integrity and adherence to GLP regulations. Briefly, a CHI value was determined by comparing the retention time of a test compound to a linear curve based on a set of calibration compounds with known CHI values. The resultant CHI value can be further converted to a CHI Log D value using an established linear regression equation.
Reference compounds with known CHI values, including theophylline, phenyltetrazole, benzymidazole, colchicine, phenyltheophylline, acetophenone, indole, propiophenone, butyrophenone, valerophenone, were used to create a calibration line. Test compounds (10 mM) were prepared in DMSO on the same day of the experiment, when feasible. For sample preparation, 10 μL of test solution was diluted with 190 μL of a solution of Ammonium Acetate solution (50 mM) and Acetonitrile (1:1) pH7.4, which was then mixed via shaking at room temperature for 10 minutes. Test solutions were compared with the reference compounds via HPLC-UV, as described in Example 19. The gradient was calibrated by determining the retention time of each reference compound on a reverse phase LC system at a pH of 7.4.
The relationship of CHI with retention time is “CHI=Atr+B,” wherein A and B are the constants of a linear plot of CHI against their gradient retention times, and tr is retention time.
The test compounds were analyzed on the same system as the test mix. The equation generated from the calibration line for the reference compounds was then used to determine the unknown CHI value for the test compound. From the CHI value, the Log D was extrapolated according to the following equation, as described in Valko et al, 2001: Log D=0.0525×CHI pH7.4-1.467. Log D represents the log of the partitioning of a chemical compound between the lipid and aqueous phases.

[2] = In vitro intrinsic clearance in human liver microsomes; assay type: in vitro ADME; conditions: pH 7.4, read-out: Intrinsic clearance (μL/min/mg protein) human
Procedure: Methods and Procedure: The general procedure involves incubating test compounds with liver microsomes and subsequently detecting the compounds to determine intrinsic clearance. Clearance was estimated from the rate of depletion k (min−1), the volume of the incubation V (mL), and the amount of microsomal proteins in the incubation M (mg). Intrinsic clearance is defined by the following equation: Clint k*V/M.
Values for CLint are expressed as μL/min/mg protein. Verapamil and dextromethorphan were used as positive controls for CYP3A4 and CYP2D6 isoforms, respectively, to confirm metabolic activity.
Positive control and compounds for testing were dissolved in an appropriate solvent to obtain a 10 mM stock solution, which was diluted to achieve a final working solution, as detailed in the above table. Stock solutions were usually prepared at 10 mM DMSO, whereas working solutions were made by adding 5 μL 10 mM DMSO+995 μL MeOH. However, this concentration can be varied, e.g., when the test item is not soluble in the selected solvent.
Prior to experimentation, frozen liver microsomes were thawed in a water bath at 37° C. and kept on ice until use. The microsomes were then diluted with 50 mM potassium phosphate buffer pH 7.4 to a protein concentration of 0.56 mg/mL. To prepare test and control items in final incubation conditions, 5 μL of test compound and positive control working solutions were added to 445 μL of microsomes incubation mixture at 0.56 mg/mL and 50 μL of regenerating system.
As it relates to the automated incubation procedure for microsomes incubation, the following procedure was followed: • 1. 150 μL of quenching solution (ACN containing an appropriate Internal Standard, i.e. Rolipram and Diclofenac for positive and negative ion mode, respectively) was manually dispensed or dispensed by using the Hamilton system in each well of 96 deep well 1 mL plates. • 2. 800-1000 μL-aliquots of NADPH regenerating system were pre-warmed at 37° C. for 5 minutes. • 3. 5 μL of 50 μM test items and control were added to 445 μL of the 0.56 mg/mL microsomes solution, and the incubation mixture was pre-warmed in a 96 deep well 2 mL plate (incubation plate) at 37° C. for 5 minutes. • 4. […] Metabolic stability was calculated from the ratio of peak area of the remaining test or control item with internal standard versus time. • 9. […] The integrated peak areas of the test and control items at the selected time points were divided by the respective peak areas of the IS, and the percent of parent remaining was calculated by normalizing the peak area ratio of parent to IS at 0 min. Observed rate constant (kobs) for parent degradation was calculated by determining the slope of the line of the graph of the natural log of percentage parent remaining versus time of incubation. […]

[3] = pH 7.4, as stated in text under Table 10, read-out: calculated Log D values
[4] = pH 7.4, pH 7.4, HPLC-UV, read-out: Chi LogD

SMILES	chromatographic logD [1, 3]	chromatographic logD [1, 4]	microsomal CLint at 0.5 µM [2]
Clc1ccc([C@]23CN[C@H](CO2)C3)cc1Cl (single isomer, unassigned) [516A]	1.15	0.75	31 µL/min/mg
Clc1ccc([C@@]23CN[C@@H](CO2)C3)cc1Cl (single isomer, unassigned) [518A]	1.15	0.75	40 µL/min/mg
Clc1ccc(C23CNC(CO2)C3)cc1Cl (stereo not drawn) [522A, 1-(3,4-dichlorophenyl)-2-oxa-5-azabicyclo[2.2.1]heptane]	1.15	0.75	10 µL/min/mg
CNC(C)Cc1ccc2c(c1)OCO2 (stereo not drawn) [MDMA, reference compound]	0.29	0.29	30 µL/min/mg
